Measurements from US12024707B2, “Methods and compositions for modulating lncRNAs and methods of treatment based on lncRNA expression” (Washington University, priority 2020, dated 2024).
Several values for one entry are separate records, joined by “and”; a condition that tells them apart may be missing. Equal values may be shown once. Where a name gives a salt, the structure may show the parent alone. Read-outs that look alike come from different tables or passages of the source. Starred links: 1 amine or outer side, 2 acyl side, 3 side chain; linkers in the order of their positions; H or OH if unused. Positions of bridges follow the written chain, without caps; N, C: chain ends. Non-standard residues stand in square brackets, D forms with d. Residues, ends and D or L forms follow the SMILES beside them. Chains are numbered I, II in the order given. Actinocin(9to1) = Cc1c2oc3c(C)ccc(C(=O)[*:1])c3nc-2c(C(=O)[*:2])c(N)c1=O; NMeV = CN[C@H](C(=O)O)C(C)C; Sar = CNCC(=O)O

System: HT29 RAMS11 overexpressing cells
Assay: High-throughput viability assay (resazurin), 119 FDA-approved anticancer drugs, RAMS11 overexpressing cells (Clone1, Clone2)
[1] = OE1 (RAMS11 overexpression clone 1), 0.1 uM drug, 72 h, vs empty vector control
[2] = OE1 (RAMS11 overexpression clone 1), 1 uM drug, 72 h, vs empty vector control
[3] = OE1 (RAMS11 overexpression clone 1), 10 uM drug, 72 h, vs empty vector control
[4] = OE2 (RAMS11 overexpression clone 2), 0.1 uM drug, 72 h, vs empty vector control
[5] = OE2 (RAMS11 overexpression clone 2), 1 uM drug, 72 h, vs empty vector control
[6] = OE2 (RAMS11 overexpression clone 2), 10 uM drug, 72 h, vs empty vector control

Method: The FDA-approved anticancer panel included multiple classes of drugs such as kinase inhibitors, alkylating agents, antineoplastic antibiotics, anthracycline antibiotics, and antineoplastic agents (topoisomerase inhibitors). The HT29 RAMS11 overexpressing and control cells were treated for 72 h to assess cellular viability upon drug treatment (FIG. 14a and TABLE 3). […] Due to 5-FU commonly used to treat mCRC, we further determined if RAMS11 expression altered drug sensitivity in treated cells.
Drugs were diluted in DMSO to 1 mM and the well assignments were rearranged so drugs were confined to the inner 60 wells of 96-well plates. […] The next day serial diluted drug was added to pre-seeded plates in media containing 1% DMSO vehicle, using a Robbins Hydra 96 micro dispenser. Two 96-well plates of cells were used as vehicle controls. The plates were incubated for 3 days. Percent viability was scored by incubating cells for 3 h with resazurin sodium (0.023 mg/mL, Sigma R7017). The reaction was stopped by the addition of SDS (1% final concentration). Fluorescence Ex/Em 540/590 was read in a Biotek Synergy H1 plate reader (Winooski, VT). The fluorescence values for the vehicle plates were averaged and percent viability was determined by the formula: Percent viability=(average vehicle−value)/(average vehicle−average resazurin in media blank)×100. […] Assays were repeated more than three times.

Compound | Viability Fold Change [1] | Viability Fold Change [2] | Viability Fold Change [3] | Viability Fold Change [4] | Viability Fold Change [5] | Viability Fold Change [6] | Viability Fold Change
CS(=O)(=O)OCCCCOS(C)(=O)=O [Busulfan] | 1.001 | 0.9365 | 0.8448 | 0.977 | 0.9369 | 0.871 | –
CO[C@H]1C(=O)[C@]2(C)[C@@H](OC)C[C@H]3OC[C@@]3(OC(C)=O)[C@H]2[C@H](OC(=O)c2ccccc2)[C@]2(O)C[C@H](OC(=O)[C@H](O)[C@@H](NC(=O)OC(C)(C)C)c3ccccc3)C(C)=C1C2(C)C [Cabazitaxel] | 2.975 | 3.231 | 2.607 | 2.745 | 2.869 | 2.506 | –
COc1cc2nccc(Oc3ccc(NC(=O)C4(C(=O)Nc5ccc(F)cc5)CC4)cc3)c2cc1OC [Cabozantinib] | 0.9713 | 1.012 | 0.995 | 0.9575 | 1.037 | 0.8731 | –
CCCCCOC(=O)Nc1nc(=O)n([C@@H]2O[C@H](C)[C@@H](O)[C@H]2O)cc1F [Capecitabine] | 1.291 | 0.7939 | 0.9609 | 1.102 | 0.8093 | 1.166 | –
N.N.O=C([O-])C1(C(=O)[O-])CCC1.[Pt+2] [Carboplatin] | 1.016 | 1.047 | 1.103 | 0.9697 | 1.074 | 0.9969 | –
CC(C)C[C@H](NC(=O)[C@H](CCc1ccccc1)NC(=O)CN1CCOCC1)C(=O)N[C@@H](Cc1ccccc1)C(=O)N[C@@H](CC(C)C)C(=O)[C@@]1(C)CO1 [Carfilzomib] | 3.32 | 2.1 | 1.625 | 2.675 | 1.654 | 1.343 | –
O=NN(CCCl)C(=O)NCCCl [Carmustine] | 1.007 | 0.9864 | 0.8696 | 1.005 | 1.079 | 1.04 | –
Cc1ccc(-c2cc(C(F)(F)F)nn2-c2ccc(S(N)(=O)=O)cc2)cc1 [Celecoxib] | 0.8767 | 0.9228 | 0.9797 | 0.948 | 0.9628 | 0.9848 | –
Cc1cc(Nc2ncc(Cl)c(Nc3ccccc3S(=O)(=O)C(C)C)n2)c(OC(C)C)cc1C1CCNCC1 [Ceritinib] | 0.9923 | 1.015 | 0.8304 | 1.009 | 1.068 | 0.8195 | –
O=C(O)CCCc1ccc(N(CCCl)CCCl)cc1 [Chlorambucil] | 0.9531 | 1.164 | 1.064 | 0.9859 | 1.144 | 0.9173 | –
N.N.[Cl][Pt][Cl] [Cisplatin] | 1.023 | 0.9277 | 0.9406 | 0.9583 | 0.9782 | 0.9961 | –
Nc1nc(Cl)nc2c1ncn2[C@H]1C[C@H](O)[C@@H](CO)O1 [Cladribine] | 0.8736 | 1.321 | 1.949 | 0.9358 | 1.327 | 1.86 | –
Nc1nc(Cl)nc2c1ncn2[C@@H]1O[C@H](CO)[C@@H](O)[C@@H]1F [Clofarabine] | 0.9141 | 1.361 | 2.473 | 1.012 | 1.421 | 2.375 | –
C[C@@H](Oc1cc(-c2cnn(C3CCNCC3)c2)cnc1N)c1c(Cl)ccc(F)c1Cl [Crizotinib] | 0.9595 | 1.07 | 0.9127 | 0.9806 | 1.093 | 0.8562 | –
O=P1(N(CCCl)CCCl)NCCCO1 (stereo not shown) [Cyclophosphamide] | – | – | – | – | – | – | 0.857 and 0.9632 and 0.9808 and 0.899 and 1.019 and 0.881
Nc1ccn([C@@H]2O[C@H](CO)[C@@H](O)[C@@H]2O)c(=O)n1 [Cytarabine hydrochloride] | 0.9825 | 1.254 | 1.524 | 0.9917 | 1.381 | 1.876 | –
CN(C)/N=N/c1[nH]cnc1C(N)=O [Dacarbazine] | 1.078 | 0.9877 | 0.983 | 1.084 | 1.028 | 0.9794 | –
Cc1c2oc3c(C)ccc(C(=O)N[C@@H]4C(=O)N[C@H](C(C)C)C(=O)N5CCC[C@H]5C(=O)N(C)CC(=O)N(C)[C@@H](C(C)C)C(=O)O[C@@H]4C)c3nc-2c(C(=O)N[C@@H]2C(=O)N[C@H](C(C)C)C(=O)N3CCC[C@H]3C(=O)N(C)CC(=O)N(C)[C@@H](C(C)C)C(=O)O[C@@H]2C)c(N)c1=O [Dactinomycin] (I: T[dV]P[Sar][NMeV] / II: T[dV]P[Sar][NMeV]; ester I:1-I:C, II:1-II:C; linker I:N-II:N via Actinocin(9to1)) | 1.513 | 1.552 | 2.719 | 1.417 | 1.475 | 2.498 | –
Cc1nc(Nc2ncc(C(=O)Nc3c(C)cccc3Cl)s2)cc(N2CCN(CCO)CC2)n1 [Dasatinib] | 0.7242 | 1.289 | 1.518 | 0.7852 | 1.567 | 1.607 | –
Nc1ncn([C@H]2C[C@H](O)[C@@H](CO)O2)c(=O)n1 [Decitabine] | 0.9064 | 0.9366 | 0.8624 | 1.026 | 1.091 | 1.168 | –
C[C@@H](CN1CC(=O)NC(=O)C1)N1CC(=O)NC(=O)C1 [Dexrazoxane] | 0.9553 | 0.9814 | 0.8688 | 0.9411 | 1.049 | 1.119 | –
CC(=O)O[C@@]12CO[C@@H]1C[C@H](O)[C@@]1(C)C(=O)[C@H](O)C3=C(C)[C@@H](OC(=O)[C@H](O)[C@@H](NC(=O)OC(C)(C)C)c4ccccc4)C[C@@](O)([C@@H](OC(=O)c4ccccc4)[C@H]21)C3(C)C [Docetaxel] | 2.831 | 2.996 | 2.894 | 2.726 | 2.845 | 2.869 | –
CNC(=O)c1ccc(N2C(=S)N(c3ccc(C#N)c(C(F)(F)F)c3)C(=O)C2(C)C)cc1F [Enzalutamide] | 1.043 | 1.081 | 1.088 | 1.022 | 1.152 | 1.1 | –
COc1cccc2c1C(=O)c1c(O)c3c(c(O)c1C2=O)C[C@@](O)(C(=O)CO)C[C@@H]3O[C@H]1C[C@H](N)[C@@H](O)[C@H](C)O1 [Epirubicin hydrochloride] | 1.025 | 1.822 | 2.19 | 1.023 | 1.861 | 1.999 | –
C#Cc1cccc(Nc2ncnc3cc(OCCOC)c(OCCOC)cc23)c1 [Erlotinib HCl] | 0.9958 | 1.169 | 1.179 | 0.9899 | 1.172 | 1.215 | –
C[C@]12CC[C@@H]3c4ccc(OC(=O)N(CCCl)CCCl)cc4CC[C@H]3[C@@H]1CC[C@@H]2O [Estramustine] | 0.97 | 1.105 | 1.034 | 0.951 | 1.223 | 1.025 | –
COc1cc([C@@H]2c3cc4c(cc3C(O[C@@H]3O[C@@H]5CO[C@@H](C)O[C@H]5[C@H](O)[C@H]3O)C3COC(=O)[C@@H]32)OCO4)cc(OC)c1O (stereo partly shown) [Etopside] | 1.144 | 1.073 | 1.161 | 1.13 | 0.9992 | 1.196 | –
CO[C@H]1C[C@@H]2CC[C@@H](C)[C@@](O)(O2)C(=O)C(=O)N2CCCC[C@H]2C(=O)O[C@H]([C@H](C)C[C@@H]2CC[C@@H](OCCO)[C@H](OC)C2)CC(=O)[C@H](C)/C=C(\C)[C@@H](O)[C@@H](OC)C(=O)[C@H](C)C[C@H](C)/C=C/C=C/C=C/1C [Everolimus] | 0.6419 | 0.7474 | 0.6863 | 0.6484 | 0.7943 | 0.721 | –
